For 20 compounds, Binding % results are on record in US10646488B2 (Araxes Pharma LLC, priority 2016, dated 2020).

The target in the assay is T1, KRAS G12C 1-169, his-tagged protein, GDP-loaded (Homo sapiens, UniProt P01116, G12C).
T1 construct: KRAS G12C 1-169, his-tagged protein, GDP-loaded
Put plainly: Covalent binding (% modification) to KRAS G12C by mass spectrometry. Also: test concentration or dose not given here. The settings on record: covalent binding to KRAS G12C after a three minute incubation period.

For `C=CC(=O)N1C[C@H](C)N(c2nc(N3CC4(CCN(C5CC5)CC4)C3)nc3c(F)c(-c4c(O)cccc4F)c(Cl)cc23)C[C@H]1C` [Compound 173, 1-((2R,5S)-4-(6-chloro-2-(7-cyclopropyl-2,7-diazaspiro[3.5]nonan-2-yl)-8-fluoro-7-(2-fluoro-6-hydroxyphenyl)quinazolin-4-yl)-2,5-dimethyl-piperazin-1-yl) prop-2-en-1-one], the Binding % result was “++ (++ indicates binding activity from 50 to 90%)”.
With `C=CC(=O)N1CCN(c2nc(N3CC(N(CC)CC)C3)nc3c(F)c(-c4c(O)cccc4F)c(Cl)cc23)[C@@H](C)C1` [Compound 174, 1-((3S)-4-(6-chloro-2-(3-(diethylamino)azetidin-1-yl)-8-fluoro-7-(2-fluoro-6-hydroxyphenyl)quinazolin-4-yl)-3-methyl-piperazin-1-yl) prop-2-en-1-one] the entry was “+++ (+++ indicates binding activity greater than 90%)”; with `C=CC(=O)N1C[C@H](C)N(c2nc(N3CC4(CCCN4C)C3)nc3c(F)c(-c4c(O)cccc4F)c(Cl)cc23)C[C@H]1C` [Compound 177, 1-((2R,5S)-4-(6-chloro-8-fluoro-7-(2-fluoro-6-hydroxyphenyl)-2-(5-methyl-2,5-diazaspiro[3.4]octan-2-yl)quinazolin-4-yl)-2,5-dimethyl-piperazin-1-yl) prop-2-en-1-one], “++ (++ indicates binding activity from 50 to 90%)”; with `C=CC(=O)N1C[C@H](C)N(c2nc(N3CC(N(C)C)C3)nc3c(F)c(-c4cc(O)cc5ccccc45)c(C(F)(F)F)cc23)C[C@H]1C` [Compound 178, 1-((2R,5S)-4-(2-(3-(dimethylamino)azetidin-1-yl)-8-fluoro-7-(3-hydroxynaphthalen-1-yl)-6-(trifluoromethyl)quinazolin-4-yl)-2,5-dimethyl-piperazin-1-yl) prop-2-en-1-one], “+++ (+++ indicates binding activity greater than 90%)”.
The same measure for `C=CC(=O)N1C[C@H](C)N(c2nc(N3CC(N(C)C)C3)nc3c(F)c(-c4cc(B5OC(C)(C)C(C)(C)O5)cc5ccccc45)c(Cl)cc23)C[C@H]1C` [Compound 179, 1-((2R,5S)-4-(6-chloro-2-(3-(dimethylamino)azetidin-1-yl)-8-fluoro-7-(3-(4,4,5,5-tetramethyl-1,3,2-dioxaborolan-2-yl)naphthalen-1-yl)quinazolin-4-yl)-2,5-dimethyl-piperazin-1-yl) prop-2-en-1-one]: “+ (+ indicates binding activity greater than 0% and up to 50%)”; for `C=CC(=O)N1C[C@H](C)N(c2nc(N3CC(N(C)C)C3)nc3c(F)c(-c4c(F)cccc4F)c(Cl)cc23)C[C@H]1C` [Compound 180, 1-((2R,5S)-4-(6-chloro-7-(2,6-difluorophenyl)-2-(3-(dimethyl-amino)azetidin-1-yl)-8-fluoro-quinazolin-4-yl)-2,5-dimethyl-piperazin-1-yl) prop-2-en-1-one]: “+ (+ indicates binding activity greater than 0% and up to 50%)”.
With `C=CC(=O)N1C[C@H](C)N(c2nc(OCCCN(C)C)nc3c(F)c(-c4cc(O)cc5ccccc45)c(Cl)cc23)C[C@H]1C` [Compound 181, 1-((2R,5S)-4-(6-chloro-2-(3-(dimethylamino)propoxy)-8-fluoro-7-(3-hydroxy-naphthalen-1-yl)quinazolin-4-yl)-2,5-dimethyl-piperazin-1-yl) prop-2-en-1-one] the entry was “+++ (+++ indicates binding activity greater than 90%)”; with `C=CC(=O)N1C[C@H](C)N(c2nc(N3CC4(CCCN(C5CC5)C4)C3)nc3c(F)c(-c4c(C)ccc5[nH]ncc45)c(Cl)cc23)C[C@H]1C` [Compound 182, 1-((2R,5S)-4-(6-chloro-2-(6-cyclopropyl-2,6-diazaspiro[3.5]nonan-2-yl)-8-fluoro-7-(5-methyl-1H-indazol-4-yl)quinazolin-4-yl)-2,5-dimethyl-piperazin-1-yl) prop-2-en-1-one], “+ (+ indicates binding activity greater than 0% and up to 50%)”; with `C=CC(=O)N1C[C@H](C)N(c2nc(N3CC4(CCCN(C)C4)C3)nc3c(F)c(-c4c(O)cccc4F)c(Cl)cc23)C[C@H]1C` [Compound 183, 1-((2R,5S)-4-(6-chloro-8-fluoro-7-(2-fluoro-6-hydroxyphenyl)-2-(6-methyl-2,6-diazaspiro[3.5]nonan-2-yl)quinazolin-4-yl)-2,5-dimethyl-piperazin-1-yl) prop-2-en-1-one], “++ (++ indicates binding activity from 50 to 90%)”.
In the case of `C=CC(=O)N1C[C@H](C)N(c2nc(N3CC4(CCN4C)C3)nc3c(F)c(-c4c(O)cccc4F)c(Cl)cc23)C[C@H]1C` [Compound 184, 1-((2R,5S)-4-(6-chloro-8-fluoro-7-(2-fluoro-6-hydroxyphenyl)-2-(1-methyl-1,6-diazaspiro[3.3]heptan-6-yl)quinazolin-4-yl)-2,5-dimethyl-piperazin-1-yl) prop-2-en-1-one], the Binding % result is “++ (++ indicates binding activity from 50 to 90%)”.
Consider `C=CC(=O)N1C[C@H](C)N(c2nc(N3CC(N(C)C)C3)nc3c(F)c(-c4c(F)cccc4B4OC(C)(C)C(C)(C)O4)c(Cl)cc23)C[C@H]1C` [Compound 185, 1-((2R,5S)-4-(6-chloro-2-(3-(dimethylamino)azetidin-1-yl)-8-fluoro-7-(2-fluoro-6-(4,4,5,5-tetramethyl-1,3,2-dioxaborolan-2-yl)phenyl)quinazolin-4-yl)-2,5-dimethyl-piperazin-1-yl) prop-2-en-1-one], for which the Binding % result is “+ (+ indicates binding activity greater than 0% and up to 50%)”.
With `C=CC(=O)N1C[C@H](C)N(c2nc(N3CC4(CCCN4C)C3)nc3c(F)c(-c4c(C)ccc5[nH]ncc45)c(Cl)cc23)C[C@H]1C` [Compound 186, 1-((2R,5S)-4-(6-chloro-8-fluoro-7-(5-methyl-1H-indazol-4-yl)-2-(5-methyl-2,5-diazaspiro[3.4]octan-2-yl)quinazolin-4-yl)-2,5-dimethyl-piperazin-1-yl) prop-2-en-1-one] the entry was “++ (++ indicates binding activity from 50 to 90%)”; with `C=CC(=O)N1C[C@H](C)N(c2nc(N3CC(N(C)C)C3)nc3c(F)c(-c4c(C)ccc5cn[nH]c45)c(Cl)cc23)C[C@H]1C` [Compound 187, 1-((2R,5S)-4-(6-chloro-2-(3-(dimethylamino)azetidin-1-yl)-8-fluoro-7-(6-methyl-1H-indazol-7-yl)quinazolin-4-yl)-2,5-dimethyl-piperazin-1-yl) prop-2-en-1-one], “+++ (+++ indicates binding activity greater than 90%)”; with `C=CC(=O)N1C[C@H](C)N(c2nc(N3CC(NC)C3)nc3c(F)c(-c4c(C)ccc5[nH]ncc45)c(Cl)cc23)C[C@H]1C` [Compound 188, 1-((2R,5S)-4-(6-chloro-8-fluoro-7-(5-methyl-1H-indazol-4-yl)-2-(3-(methylamino)azetidin-1-yl)quinazolin-4-yl)-2,5-dimethyl-piperazin-1-yl) prop-2-en-1-one], “+ (+ indicates binding activity greater than 0% and up to 50%)”.
For `C=CC(=O)N1C[C@H](C)N(c2nc(N3CC(N(C)C)C3)nc3c(F)c(-c4c(C)ccc5[nH]ncc45)c(C(F)(F)F)cc23)C[C@H]1C` [Compound 189, 1-((2R,5S)-4-(2-(3-(dimethylamino)azetidin-1-yl)-8-fluoro-7-(5-methyl-1H-indazol-4-yl)-6-(trifluoromethyl)quinazolin-4-yl)-2,5-dimethyl-piperazin-1-yl) prop-2-en-1-one], the Binding % entry is “+++ (+++ indicates binding activity greater than 90%)”.
The same measure for `C=CC(=O)N1C[C@H](C)N(c2nc(N3CC4(CCN(C)C4)C3)nc3c(F)c(-c4c(O)cccc4F)c(Cl)cc23)C[C@H]1C` [Compound 190, 1-((2R,5S)-4-(6-chloro-8-fluoro-7-(2-fluoro-6-hydroxyphenyl)-2-(6-methyl-2,6-diazaspiro[3.4]octan-2-yl)quinazolin-4-yl)-2,5-dimethyl-piperazin-1-yl) prop-2-en-1-one]: “++ (++ indicates binding activity from 50 to 90%)”; for `C=CC(=O)N1C[C@H](C)N(c2nc(OCCCN(C)C)nc3c(F)c(-c4c(C)ccc5cn[nH]c45)c(Cl)cc23)C[C@H]1C` [Compound 191, 1-((2R,5S)-4-(6-chloro-2-(3-(dimethylamino)propoxy)-8-fluoro-7-(6-methyl-1H-indazol-7-yl)quinazolin-4-yl)-2,5-dimethyl-piperazin-1-yl) prop-2-en-1-one]: “+++ (+++ indicates binding activity greater than 90%)”.
Take `C=CC(=O)N1C[C@H](C)N(c2nc(N3CC4(COC4)C3)nc3c(F)c(-c4c(O)cccc4F)c(Cl)cc23)C[C@H]1C` [Compound 192, 1-((2R,5S)-4-(6-chloro-8-fluoro-7-(2-fluoro-6-hydroxyphenyl)-2-(2-oxa-6-azaspiro[3.3]heptan-6-yl)quinazolin-4-yl)-2,5-dimethyl-piperazin-1-yl) prop-2-en-1-one]: the Binding % result was “++ (++ indicates binding activity from 50 to 90%)”.
In the case of `C=CC(=O)N1C[C@H](C)N(c2nc(N3CC4(CCO4)C3)nc3c(F)c(-c4c(C)ccc5[nH]ncc45)c(Cl)cc23)C[C@H]1C` [Compound 193, 1-((2R,5S)-4-(6-chloro-8-fluoro-7-(5-methyl-1H-indazol-4-yl)-2-(1-oxa-6-azaspiro[3.3]heptan-6-yl)quinazolin-4-yl)-2,5-dimethyl-piperazin-1-yl) prop-2-en-1-one], the Binding % result is “++ (++ indicates binding activity from 50 to 90%)”.
In the case of `C=CC(=O)N1C[C@H](C)N(c2nc(N3CC4(CCCN(C)C4)C3)nc3c(F)c(-c4c(C)ccc5[nH]ncc45)c(Cl)cc23)C[C@H]1C` [Compound 194, 1-((2R,5S)-4-(6-chloro-8-fluoro-7-(5-methyl-1H-indazol-4-yl)-2-(6-methyl-2,6-diazaspiro[3.5]nonan-2-yl)quinazolin-4-yl)-2,5-dimethyl-piperazin-1-yl) prop-2-en-1-one], the Binding % entry was “++ (++ indicates binding activity from 50 to 90%)”.
